Measured values reported in ChEMBL document CHEMBL5120926, “Isolation and Synthesis of Azuriaplysins A and B, Bromoditerpenes with an α-Methylene Carbonyl from the Sea Hare Aplysia kurodai” (J Nat Prod, 2022).

Tested on: HeLa S3
Assay: Cytotoxicity against human HeLa S3 cells assessed as inhibition of cell growth incubated for 72 hrs by MTT assay
Type: functional, cell-based

Row | Structure (SMILES) | IC50 (Homo sapiens, HeLa S3, 72 h) [µM] | IC50 (hela s3) [µM]
1 | C=C(CC[C@@H]1[C@@]2(C)CC[C@H](Br)C(C)(C)[C@@H]2CC[C@@]1(C)O)C(=O)CO (stereo in doubt; form 1) | 8.1 | 
2 | C=C(C=O)CC[C@@H]1[C@@]2(C)CC[C@H](Br)C(C)(C)[C@@H]2CC[C@@]1(C)O (stereo in doubt; form 1) |  | 40
3 | C=C(CC[C@@H]1[C@@]2(C)CC[C@H](Br)C(C)(C)[C@@H]2CC[C@@]1(C)O)C(=O)CO (stereo in doubt; form 2) |  | 5.2
4 | C=C(CC[C@@H]1[C@@]2(C)CC[C@H](Br)C(C)(C)[C@@H]2CC[C@@]1(C)O)C(=O)CO (stereo in doubt; form 3) |  | 4.1
5 | C=C(C=O)CC[C@@H]1[C@@]2(C)CC[C@H](Br)C(C)(C)[C@@H]2CC[C@@]1(C)O (stereo in doubt; form 2) |  | 24
6 | C=C(C=O)CC[C@@H]1[C@@]2(C)CC[C@H](Br)C(C)(C)[C@@H]2CC[C@@]1(C)O (stereo in doubt; form 3) |  | 14
